Data published in US11155552B2, “Rutaecarpine analogs and applications thereof” (TAIPEI MEDICAL UNIVERSITY, priority 2018, dated 2021).

Legend:
NF-κB = experiment: NF-κB-dependent luciferase reporter assay in LPS-induced macrophages; assay type: cell-based; conditions: 0-2.5 μM; LPS 40 ng/mL 24 h; FIG. 2(b)
Protocol: RAW264.7 macrophages were seeded in a 96-well plate with DMEM. Then, cells were transfected with the pGL4.32 [luc2P/NF-κB-RE/Hygro] (Promega, Madison, Wis., USA) plasmid reporter gene using TurboFect Transfection Reagent (Fermentas, Glen Burnie, Md., USA). At 24 h after transfection, cells were treated with LPS (40 ng/mL) and F-RUT for 24 h in serum-free medium. Then the luciferase activity was detected by the luminescence measured in a luminescence microplate reader (Thermo Varioskan Flash, Waltham, Mass., USA) using a ONE-Glo luciferase assay kit (Promega). Luciferase activities were normalized to protein concentrations.

COX-2 [1] = experiment: COX-2 protein expression in LPS-treated RAW264.7 macrophages (Western blot); assay type: cell-based; conditions: FIG. 2(a)
Protocol: (§1) Protein samples were separated and resolved by sodium dodecylsulfate polyacrylamide gel electrophoresis (SDS-PAGE) and electrotransferred onto a polyvinylidene difluoride (PVDF) membrane. The membrane was incubated with a primary antibody at 4° C. overnight, and then incubated with a horseradish peroxidase (HRP)-conjugated secondary immunoglobulin G (IgG) antibody; immunoreactive bands were visualized with PerkinElmer enhanced chemiluminescent reagents.

COX-2 [2] = experiment: COX-2 enzyme activity
H460 = experiment: MTT cell viability assay, H460; assay type: cell-based; conditions: H460 cells; 0-20 μM; 24 h; FIG. 1(c)
Protocol: (§2) An MTT assay to test cell viability was performed based on the conversion of the yellow tetrazolium salt to the purple formazan product. Cells (10^4 cells/well) were grown in a 96-well plate supplemented with standard culture medium. Cells were treated with RUT and F-RUT (0-20 μM) for 24 h. An MTT stock solution (5 mg of MTT/mL of phosphate-buffered saline; PBS) was added to the growing cultures for 2 h. The absorbance was measured with a spectrophotometer at 560 nm. DMSO alone was measured as a reading control. Data were reported as the mean±SEM values of five independent determinations.

A2780 cells [3] = experiment: Transwell Matrigel cell invasion assay; assay type: cell-based; conditions: 0-2.5 μM, 24 h, FIG. 3(b)
Protocol: A2780 cell invasion was evaluated using 24-well transwell inserts (8-μm-pore filters, Merck Millipore) individually coated with Matrigel (BD Biosciences, Bedford, Mass., USA). A2780 cells (2×10^4 cells in each well) were cultured for 24 h with serum-free minimum essential medium (MEM) and then treated with F-RUT (1.25 or 2.5 μM) for another 24 h in the upper chamber of the transwell. Medium containing 10% FBS was placed in the lower chamber. At the end of incubation, non-migrated cells were removed using a cotton swab; cells that had penetrated to the opposite surface of the filter were fixed with 4% formaldehyde and stained with 2% crystal violet. Stained cells were counted and photographed under a phase-contract optical microscope at 200× magnification. Three independent experiments were performed as described elsewhere.

RAW264.7 macrophages = experiment: NO production (nitrite, Griess reagent) by LPS-treated RAW264.7 macrophages; assay type: cell-based; conditions: LPS 40 ng/mL co-treatment 24 h; 0-20 μM; FIG. 1(a)
Protocol: The RAW264.7 macrophage cell line and A2780 ovarian carcinoma cells were grown in Dulbecco's modified Eagle medium (DMEM) containing 10% fetal bovine serum (FBS), 100 U/mL penicillin, 100 μg/mL streptomycin, 1 mM sodium pyruvate, 4.5 g/L glucose, 4 mM 1-glutamine, and 1.5 g/L sodium bicarbonate at 37° C. in a humidified atmosphere with 5% CO2. Primary human aortic ECs (HAECs) were grown in a MesoEndo Endothelial Cell Growth Medium Kit (Cell Applications, San Diego, Calif., USA) supplemented with 10% FBS at 37° C. in a humidified atmosphere with 5% CO2.
(§3) NO production was evaluated by measuring the nitrite concentration in supernatants of cultured RAW264.7 macrophages. Cells were first seeded at a density of 2×10^5 cells/mL in 24-well plates for 24 h, followed by co-treatment with different concentrations of F-RUT with lipopolysaccharide (LPS) (40 ng/mL) for another 24 h. The amount of nitrite in cell culture supernatants was detected using the Griess reagent (1% sulfanilamide in 5% phosphoric acid and 0.1% naphthylethylenediamine dihydrochloride in water). Data are reported as the mean±standard error of the mean (SEM) values of three independent determinations.

eNOS = eNOS phosphorylation in human aortic endothelial cells (immunoblotting); assay type: cell-based; conditions: HAECs; 20 μM; 15 min; normalized with total eNOS
Protocol: as §1
(§4) TRPV1 is reportedly present in ECs of arteries. To validate the expression of TRPV1 in the endothelium, the TRPV1 protein of human aortic ECs (HAECs) was detected using immunoblotting; the method of Western Blot Analysis has been stated in Example 4. F-RUT treatment (20 μM) for 15 min increased TRPV1 protein amounts two-fold compared to the control group after normalization with α-tubulin levels (FIG. 4). The effect of F-RUT on the phosphorylation of eNOS in HAECs is further examined because NO production is consequently regulated by the phosphorylation of eNOS.

KLF10 KO mice [4] = experiment: Lung inflammation and collagen formation in OVA/alum-challenged KLF10 KO mice; assay type: in vivo
Protocol: (§5) BALB/c mice (six weeks of age) were obtained from the Animal Center of the College of Medicine, National Taiwan University (Taipei, Taiwan), and sensitized with an intraperitoneal injection of 20 μg of ovalbumin (OVA) emulsified in 2 mg of aluminum hydroxide in a total volume of 200 μL phosphate-buffered saline (PBS) on day 0, and boosted with 50 μg of OVA emulsified in 4 mg of aluminum hydroxide on days 14 and 28. RUT or F-RUT was given by oral administration on days 30, 32, 34, 36, and 38. For post-challenge, all mice were treated intranasally with OVA (100 μg in a total volume of 40 μL PBS) on days 40, 41, 42, and 43. At 24 h after the last OVA challenge, mice were sacrificed, and their organs were collected. All experimental procedures were reviewed and approved by the Institutional Animal Care and Use Committee or Panel. Lung tissues were fixed in 4% paraformaldehyde (sc-281692; Santa Biotechnology) and embedded in paraffin. Tissue sections were made at a 5-μm thickness, and stained with hematoxylin and eosin (H&E) solution for examination of inflammation.
KLF10 gene is regulated by transforming growth factor (TGF)-β/Smad. Deletion of Klf10 in mice is associated with significant inflammation of the lungs challenged with OVA/alum for 44 days. In another experiment, KLF-10 KO mice was used. […]

BALB/c mice = experiment: Lung inflammation in OVA/alum-challenged BALB/c mice; assay type: in vivo; conditions: alternate-day oral administration, FIG. 5(a)
Protocol: as §5

A2780 cells [5] = experiment: Wound-healing cell migration assay; assay type: cell-based; conditions: 0-5 μM, 0-24 h, FIG. 3(a)
Protocol: A2780 cells were cultured at a density of 2×10^5 cells/well in 6-well plates and incubated at 37° C. for 24 h. A centerline in the cells was scratched using a 200-μL pipette tip and washed with PBS. Then, new complete medium was added and treated with or without 1 and 2.5 μM of F-RUT for 24 h. At the endpoint of incubation, cells were examined and photographed with an optical microscope. The distance between the edges of the scratched area was measured and calculated to estimate the migratory ability of cells.
As illustrated in FIG. 3(a), wound-healing assays used an ovarian carcinoma A2780 cell line in the presence of F-RUT (0-5 μM) for 0-24 h. The migration rate was measured using imaging software, and Student's t-test was used for the statistical analysis.

RAW264.7 = experiment: MTT cell viability assay, RAW264.7; assay type: cell-based
Protocol: as §2

KLF10 KO mice [6] = experiment: Blood-air-barrier thickness by TEM in OVA/Alum-challenged KLF10 KO mice; assay type: in vivo; conditions: KLF-10 KO mice; oral; OVA/Alum group 586 nm, control group 348 nm; FIG. 6
Protocol: Blood-Air-Barrier (alveolar-capillary membrane), gas exchanging region of the lungs, was measured to perform the lung function. After the KLF-10 KO mice were challenged with OVA/Alum and oral administration of RUT or F-RUT, the lung was harvested to measure the thickness of blood-air-barrier by TEM. The average thickness of blood-air-barrier was significant increased in OVA/Alum group (586 nm compared to 348 nm in control group) and reversed by RUT or F-RUT (418 and 393 nm, respectively), see FIG. 6.

zebrafish = experiment: LPS-induced ROS level in zebrafish; assay type: in vivo; conditions: 5 ng/ml F-RUT, LPS 10 and 20 ng/ml, FIG. 7
iNOS = iNOS protein expression in LPS-treated RAW264.7 macrophages (Western blot); assay type: cell-based; conditions: FIG. 2(a)
Protocol: as §1

TRPV1 = TRPV1 protein in human aortic endothelial cells (immunoblotting); assay type: cell-based; conditions: HAECs; 20 μM; 15 min; normalized with α-tubulin
Protocol: as §1, §4

TNF-α = TNF-α release by LPS-treated RAW264.7 macrophages (mouse TNF-α Quantikine kit); assay type: cell-based; conditions: FIG. 1(b)
Protocol: FIGS. 1A thru 1C show the effects of 10-fluoro-2-methoxyrutaecarpine (F-RUT) on nitric oxide (NO) and tumor necrosis factor (TNF)-α release by lipopolysaccharide (LPS)-treated (40 ng/mL) RAW264.7 macrophages: (a) NO levels were detected in culture medium using the Griess reaction; (b) TNF-α release in cell supernatants was detected using a mouse TNF-α Quantikine kit; (c) Cell viability upon F-RUT and rutaecarpine (RUT) treatment for 24 h in an MTT assay. Values are expressed as the mean±SE. *p<0.05, **p<0.01.
as §3

CL1-3 = experiment: MTT cell viability assay, CL1-3; assay type: cell-based; conditions: CL1-3 cells; 0-20 μM; 24 h; FIG. 1(c)
Protocol: as §2

| Structure (SMILES) | LPS-induced NF-κB transcriptional activity (NF-κB) | COX-2 protein expression (COX-2 [1]) | COX-2 enzyme activity (COX-2 [2]) | cytotoxicity (H460) | cell invasion (A2780 cells [3]) | NO production (RAW264.7 macrophages) | increase of phosphorylation of eNOS compared to the control group (eNOS) [fold] | collagen formation around the bronchus (KLF10 KO mice [4]; KLF10 KO mice, oral administration, 25% in OVA/Alum group, FIG. 5(c)) [%] | OVA/alum-induced lung inflammation (KLF10 KO mice [4]; KLF-10 KO mice, alternate-day oral administration, FIG. 5(b)) | OVA/alum-induced lung inflammation (BALB/c mice) | cell migration (A2780 cells [5]) | cytotoxicity (RAW264.7; RAW264.7 cells, 0-20 μM, 24 h, FIG. 1(c)) | cytotoxicity compared to RUT (RAW264.7; compared to RUT) | average thickness of blood-air-barrier (KLF10 KO mice [6]) [nm] | LPS-induced ROS level (zebrafish) | iNOS protein expression (iNOS) | increase of TRPV1 protein amounts compared to the control group (TRPV1) | TNF-α released into the medium (TNF-α) | cytotoxicity (CL1-3) |
| --- | --- | --- | --- | --- | --- | --- | --- | --- | --- | --- | --- | --- | --- | --- | --- | --- | --- | --- | --- |
| COc1ccc2c(=O)n3c(nc2c1)-c1[nH]c2ccc(F)cc2c1CC3 [F-RUT, 10-fluoro-2-methoxyrutaecarpine] | inhibited LPS-induced NF-κB transcriptional activity | suppressed their expressions in a concentration-dependent manner | the enzyme activity is also inhibited | substantially no cytotoxicity | invasion inhibitory activity | suppressed NO production in a concentration-dependent (0-20 μM) manner | 1.4 | 18 | ameliorated the OVA/alum-induced lung inflammation | ameliorated the OVA/alum-induced lung inflammation | significant effects against cell migration | substantially no cytotoxicity | less cytotoxicity | 393 | suppressed the LPS-induced ROS | suppressed their expressions in a concentration-dependent manner | two-fold | suppressive effect of TNF-α released into the medium | substantially no cytotoxicity |
| O=c1c2ccccc2nc2n1CCc1c-2[nH]c2ccccc12 [RUT, Rutaecarpine] |  |  |  |  |  |  |  |  |  |  |  |  |  | 418 |  |  |  |  |  |
